Columns and labels:
mitochondrial network = assay: CCCP-induced perturbation of the mitochondrial network (COXIV/DAPI stain); type: cell-based; settings: compared to mock-treated controls
Description: In transfected cells, EspZ prevented COOP-induced perturbation of the mitochondrial network (compared to control vector-transfected cells). Red=COXIV (mitochondrial stain); blue=DAPI stain.
The uncoupler carbonyl cyanide m-chlorophenylhydrazone (COOP) induces Fis1- and Drp1-dependent mitochondrial fission. In transfected cells, EspZ prevented COOP-induced perturbation of the mitochondrial network (see FIG. 10). Thus, EspZ may be necessary and sufficient for inhibiting mitochondrial fission.

[1] = tested on: EspZ dimerization/oligomerization; assay: ToxLuc system (ToxR-TM-MBP fusions, ctx promoter luciferase reporter); type: cell-based, EPEC; settings: TM2 derivatives expressed as ToxR-TM-MBP fusions in E. coli ΔmalE strain (NT326); baseline Ala17
Description: (§1) Directional targeting of the TM region to the inner membrane allows the periplasmic MBP domain to complement the growth of the ΔmalE strain in medium containing maltose as the sole carbon source. […] TM domain interactions induce dimerization of cytoplasmic ToxR domains, allowing the transcriptional activator to bind to the ctx promoter and promote expression of the downstream luciferase reporter. […] A 17-residue poly-alanine stretch (Ala17) was used as a baseline TM control for nonspecific ToxR-dependent luciferase activation. A GpA GXXXG mutant (G831) was impaired for luciferase activation (REF).
as §1, with “Membrane-localized GXXXG sequences can promote homo- and hetero-typic interactions between proteins. Referring to FIG. 5A and FIG. 5B, a ToxLuc system was used to verify targeting of the predicted EspZ TM regions to the membrane and to assess the role of GXXXG sequences in EspZ dimerization/oligomerization. […] Western blot analyses confirmed robust expression of all ToxR-TM-MBP fusion proteins. Directional” for “Directional”, “activation. As noted previously, a” for “activation. A”, “mutant (G83I)” for “mutant (G831)”

N#CC(C#N)=NNc1cccc(Cl)c1 [CCCP, carbonyl cyanide m-chlorophenylhydrazone]
effect on mitochondrial network (mitochondrial network): causes fragmentation of the mitochondrial network and its retraction towards the nucleus

LGLLIAALVLGLVTTVAGGLAMK (Artificial inhibitor peptide based on EspZ) [all three G residues, targeting peptide, EspZ TM2 derivative]
luciferase activity (TM self-association) [1]: abrogated luciferase expression

LGLGIAALVLGGVTTVAGGLAMK (Artificial inhibitor peptide based on EspZ) [G81L, targeting peptide, EspZ TM2 derivative]
luciferase activity (TM self-association) [1]: reduced luciferase activity to near-baseline levels

LGLGIAAGVLGLVTTVAGGLAMK (Artificial inhibitor peptide based on EspZ) [G85L, targeting peptide, EspZ TM2 derivative]
luciferase activity (TM self-association) [1]: reduced luciferase activity to near-baseline levels

From US11484603B2, “Methods, systems, and compositions for inhibiting virulence of A/E family pathogens” (ARIZONA BOARD OF REGENTS ON BEHALF OF THE UNIVERSITY OF …, priority 2017, dated 2022)
